The values below come from patent US20090099099A1, “Isoflavone Glycosides as Peroxisome Proliferator-Activated Receptor-alpha Modulator” (priority 2007, published 2009).

Series [1] addresses T1, PPAR-α (Homo sapiens, UniProt Q07869).
T1 sequence (Q07869 1-468): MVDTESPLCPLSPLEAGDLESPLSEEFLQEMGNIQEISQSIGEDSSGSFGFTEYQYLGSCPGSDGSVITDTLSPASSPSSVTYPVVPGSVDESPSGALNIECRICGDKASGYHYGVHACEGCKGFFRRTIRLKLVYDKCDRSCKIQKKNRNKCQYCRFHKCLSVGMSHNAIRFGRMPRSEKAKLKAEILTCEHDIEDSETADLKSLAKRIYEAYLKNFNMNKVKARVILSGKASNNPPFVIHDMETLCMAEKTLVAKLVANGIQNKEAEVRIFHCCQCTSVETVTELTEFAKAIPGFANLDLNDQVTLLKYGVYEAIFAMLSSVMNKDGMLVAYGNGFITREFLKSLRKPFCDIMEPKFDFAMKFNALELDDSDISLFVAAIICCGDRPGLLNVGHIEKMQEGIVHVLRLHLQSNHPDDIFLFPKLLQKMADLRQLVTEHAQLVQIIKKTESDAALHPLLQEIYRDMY
Particulars: cited from earlier work.

The conditions of series [2]: mice; cited from earlier work.
The conditions of series [3]: rats, oral intake; cited from earlier work.
For series [4] the following is noted: cited from earlier work.
For series [5], the system named is PPAR-α. The series is described as follows: Protein immuno-blotting of PPAR-α expression in HepG2 cells. It is filed as cell-based, human. To be noted: puerarin 1-100 μM, 24 hours, Western blotting. How it is done: FIG. 2. Expression of PPAR-α in HepG2 cells. Cells were incubated in puerarin (1-100 μM) for 24 hrs. Whole cell lysate were collected and PPAR-α expression was probed using anti-PPAR-α (Santa Cruz, Calif.) in Western blotting. Each lane was loaded with 50 μg protein from cell lysate. Expression of actin was also probed to ensure protein loading.
Cell Cultures HepG2 cells was purchased from American Type Culture Collection (Manassas, Va.). They were maintained in DMEM containing 10% heat-inactivated fetal bovine serum and 1% penicillin/streptomycin in tissue culture dishes incubated in 95% air/5% CO2, at 37° C. The media were changed 2 times per week until the cells were confluent.
Protein immuno-blotting of PPAR-α. HepG2 cells were collected in RIPA buffer (150 mM NaCl, 1% Triton X-100, 1% sodium deoxycholate, 0.1% sodium dodecyl sulfate, 50 mM Tris-HCl, 2 mM EDTA, pH 7.5) with protease inhibitors (Mini-Complete protease inhibitor cocktail tablets (Roche Diagnostics, Mannheim, Germany)] after incubated in puerarin (1-100 μM) for 24 hours. The protein content of the cell lysate was quantified by using a protein assay kit (Bio-Rad Lab, Hercules Calif.). Protein (50 μg) from the whole cell lysate was loaded in each lane of a polyacrylamide (10%) gel, eletrophoresed and blotted to a polyvinylidene difluoride (PVDF) membrane. […]

Series [6] is described as follows: Body weights of SHRSP rats treated by gavage for 5 months. The class given is in vivo. How it is done: FIG. 3. Effects of puerarin on the body weights of rats. The rats were fed on a normal chow diet for 5 months starting when they were 4 weeks old. The rats were treated by gavage either with vehicle (normal saline) or puerarin (250 mg/Kg/day in a single dose in normal saline). The data were compared statistically by using two-way ANOVA with n=8 in each group.
Spontaneously hypertensive stroke-prone (SHRSP) male rats were fed on a normal chow diet for 5 months starting when they were 4 weeks old. The rats were treated by gavage either with vehicle (normal saline) or puerarin (250 mg/Kg/day in a single dose in normal saline). Their blood pressures and body weights were monitor everyday for 5 months.

Read-outs that look alike come from different tables or passages of the source.

Take `O=c1c(-c2ccc(O)cc2)coc2cc(O)ccc12` [daidzein]: the “activation of PPAR-α” value on PPAR-α [1] is “activate PPAR-α”.
As for `O=c1c(-c2ccc(O)cc2)coc2cc(O[C@@H]3O[C@H](CO)[C@@H](O)[C@H](O)[C@H]3O)ccc12` [daidzin, reference compound], the “effect on glucose tolerance” value in series [2] is “impairs glucose tolerance”.
Consider `O=c1c(-c2ccc(O)cc2)coc2c([C@@H]3O[C@H](CO)[C@@H](O)[C@H](O)[C@H]3O)c(O)ccc12` [puerarin, 4H-1-Benzopyran-4-one, 8-β-D-glucopyranosyl-7-hydroxy-3-(4-hydroxyphenyl)], for which, in series [2], the “effect on glucose tolerance” value is “improves glucose tolerance”. In addition, the “absorption from the intestine” value in series [3] was “rapidly absorbed”. Also, the “metabolism in the blood” value in series [3] was “mostly remains unmetabolized”. The Effects entry in series [4] (AMI patients (Xiao et al., 2004)) is “↓ the infarction size, ↓free fatty acids”; in series [4] (Angina patients (Yang et al., 1990)), “Anti-angina, reducing both systolic”; in series [4] (CHD patients (Xie et al., 2003)), “Simulate the late phase of ischemic”; in series [4] (Chronic heart failure patients (Duan et al., 2000)) it was “↓ oxidized-LDL, improve heart”; in series [4] (Coronary heart disease (CHD) patients (Shi et al., 2002)), “Improve insulin resistance, and insulin”; in series [4] (Diabetic retinopathy patients (Ren et al., 2000)) it was “↓ blood viscosity, improve”. Besides, the Effects result in series [4] (Unstable angina (UA) patients (Luo and Zheng, 2001)) is “↓ platelet granule membrane protein”. In the series with PPAR-α [5], the PPAR-α expression result is reported as “upregulated”. Moreover, in series [6] (250 mg/Kg/day by gavage, 5-month period, n=8, P<0.001), the “body weights, treatment group vs control group (two-way ANOVA)” value was “significantly different”. For the same compound, the toxicity result in series [6] (250 mg/Kg/day orally, 5 months, rats) is listed as “no apparent toxicity”. The “body weight less than the control rats in average” value in series [6] (250 mg/Kg/day orally, over 5 months period, SHRSP male rats, normal chow diet) amounted to 13%.
